Active and inactive are the calls of the source. The calls are words filed in the database; no cut-off is given here.
How the values were obtained:
[1] = biological target: Mitogen-activated protein kinase 9 (Homo sapiens) (UniProt P45984); assay: Activation of JNK2 in human HCT116 cells transfected with shRNA against p53 assessed as phosphorylation at 10 uM after 24 hrs by Western blotting analysis; type: cell-based; settings: HCT-116
[2] = test system: HCT-116; assay: Antiproliferative activity against human HCT116 cells transfected with shRNA against p53 at 10 uM after 24 hrs by CCK8 assay in presence of exogenous p53 gene; type: functional, cell-based
[3] = test system: HCT-116; assay: Antiproliferative activity against human HCT116 cells at 10 uM upto 20 hrs by CCK8 assay relative to control in presence of 20 uM SP600125 reversible JNK inhibitor; type: functional, cell-based
[4] = biological target: Mitogen-activated protein kinase 8 (Homo sapiens) (UniProt P45983); assay: Activation of JNK1 in human HCT116 cells assessed as phosphorylation at 10 uM after 24 hrs by Western blotting analysis; type: cell-based; settings: HCT-116
Chain of Mitogen-activated protein kinase 8 (Homo sapiens) (P45983 whole entry): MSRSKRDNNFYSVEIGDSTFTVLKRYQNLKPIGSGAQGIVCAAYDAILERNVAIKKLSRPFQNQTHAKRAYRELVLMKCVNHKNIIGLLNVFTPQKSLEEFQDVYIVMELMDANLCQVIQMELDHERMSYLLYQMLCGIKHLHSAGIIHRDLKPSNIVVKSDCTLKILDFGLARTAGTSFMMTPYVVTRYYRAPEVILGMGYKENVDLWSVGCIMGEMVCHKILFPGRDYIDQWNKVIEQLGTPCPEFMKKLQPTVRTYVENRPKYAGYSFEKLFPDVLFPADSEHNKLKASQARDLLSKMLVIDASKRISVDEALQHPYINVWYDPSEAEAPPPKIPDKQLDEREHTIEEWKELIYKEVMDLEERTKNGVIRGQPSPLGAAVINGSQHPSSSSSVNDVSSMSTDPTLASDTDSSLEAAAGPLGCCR

[5] = test system: HCT-116; assay: Induction of cell cycle arrest in human HCT116 cells assessed as cells accumulation at G0/G1 phase at 10 uM after 24 hrs by propidium iodide staining-based flow cytometry (reference value: 31.9 +/- 2.3%); type: functional
[6] = test system: HCT-116; assay: Antiproliferative activity against human HCT116 cells assessed as cell viability after 24 hrs by WST8 assay; type: functional, cell-based
[7] = biological target: Mitogen-activated protein kinase 8 (Homo sapiens) (UniProt P45983); assay: Activation of JNK1 in human HCT116 cells transfected with shRNA against p53 assessed as phosphorylation at 10 uM after 24 hrs by Western blotting analysis; type: cell-based; settings: HCT-116
[8] = test system: HCT-116; assay: Induction of autophagy in human HCT116 cells assessed as increase in LC3-II accumulation at 10 uM upto 20 hrs by Confocal imaging analysis; type: functional, cell-based
[9] = test system: HCT-116; assay: Induction of autophagy in human HCT116 cells assessed as LC3-II accumulation at 10 uM upto 20 hrs by Western blotting analysis in presence of 20 uM SP600125 reversible JNK inhibitor; type: functional, cell-based
[10] = biological target: Mitogen-activated protein kinase 8 (Homo sapiens) (UniProt P45983); assay: Activation of JNK1 in human HCT116 cells assessed as phosphorylation at 10 uM after 24 hrs by Western blotting analysis in presence of 30 uM PFT-alpha p53 antagonist; type: cell-based; settings: HCT-116
[11] = test system: HCT-116; assay: Induction of autophagy in human HCT116 cells assessed as increase in LC3-II dots per cell at 10 uM upto 20 hrs by Confocal imaging analysis relative to vehicle treated control (reference value: 0.8/cell); type: functional
[12] = test system: HCT-116; assay: Induction of autophagy in human HCT116 cells transfected with shRNA against p53 assessed as LC3-II accumulation at 10 uM after 24 hrs by Western blotting analysis; type: functional, cell-based
[13] = test system: HCT-116; assay: Induction of autophagy in human HCT116 cells assessed as autophagic vacuoles at 10 uM after 24 hrs by monodansylcadaverine staining assay; type: functional, cell-based
[14] = test system: HCT-116; assay: Induction of autophagy in human HCT116 cells assessed as increase in LC3-II accumulation at 10 uM upto 20 hrs by immunoblot analysis; type: functional, cell-based
[15] = test system: HCT-116; assay: Induction of autophagy in human HCT116 cells assessed as LC3-II accumulation at 10 uM upto 20 hrs by Western blotting analysis in presence of 30 uM PFT-alpha p53 antagonist; type: functional, cell-based
[16] = test system: HCT-116; assay: Antiproliferative activity against human HCT116 cells assessed as cell viability at 10 uM after 24 hrs by WST8 assay relative to vehicle treated control; type: functional; settings: HCT-116, 24 h
[17] = biological target: Mitogen-activated protein kinase 9 (Homo sapiens) (UniProt P45984); assay: Activation of JNK2 in human HCT116 cells assessed as phosphorylation at 10 uM after 24 hrs by Western blotting analysis; type: cell-based; settings: HCT-116
[18] = test system: HCT-116; assay: Induction of autophagy in human HCT116 cells assessed as autophagic vacuoles at 10 uM after 24 hrs by monodansylcadaverine staining assay in presence of Bafilomycin A1; type: functional, cell-based
[19] = test system: HCT-116; assay: Antiproliferative activity against human HCT116 cells transfected with shRNA against p53 at 10 uM after 24 hrs by CCK8 assay relative to control; type: functional, cell-based
[20] = test system: HCT-116; assay: Induction of cell cycle arrest in human HCT116 cells assessed as cells accumulation at S phase at 10 uM after 24 hrs by propidium iodide staining-based flow cytometry (reference value: 48.8 +/- 1.5%); type: functional
[21] = biological target: Mitogen-activated protein kinase 9 (Homo sapiens) (UniProt P45984); assay: Activation of JNK2 in human HCT116 cells assessed as phosphorylation at 10 uM after 24 hrs by Western blotting analysis in presence of 30 uM PFT-alpha p53 antagonist; type: cell-based; settings: HCT-116
[22] = test system: HCT-116; assay: Induction of cell cycle arrest in human HCT116 cells assessed as cells accumulation at G2/M phase at 10 uM after 24 hrs by propidium iodide staining-based flow cytometry (reference value: 19.2 +/- 0.3%); type: functional

Chain of Mitogen-activated protein kinase 9 (Homo sapiens) (P45984 whole entry, looked up): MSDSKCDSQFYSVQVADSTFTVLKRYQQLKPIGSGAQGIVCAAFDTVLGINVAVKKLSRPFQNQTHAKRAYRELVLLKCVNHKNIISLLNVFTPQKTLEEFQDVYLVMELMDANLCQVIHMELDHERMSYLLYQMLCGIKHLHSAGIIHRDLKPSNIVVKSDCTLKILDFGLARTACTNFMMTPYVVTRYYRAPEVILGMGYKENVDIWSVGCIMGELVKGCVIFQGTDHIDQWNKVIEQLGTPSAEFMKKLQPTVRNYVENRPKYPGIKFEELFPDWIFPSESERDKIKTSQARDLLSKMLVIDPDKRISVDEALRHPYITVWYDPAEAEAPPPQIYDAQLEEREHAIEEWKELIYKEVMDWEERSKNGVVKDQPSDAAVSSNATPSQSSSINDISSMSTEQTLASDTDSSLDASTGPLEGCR

`COc1cc(O)cc(O)c1C(=O)/C=C/c1ccccc1` [CARDAMOMIN] was tested, and the Activity [1] was “inactive”, the inhibition [2] was “Active” and the Activity [3] was “inactive”. The Activity [4] was “Active”, the Activity [5] was 28.4% and the inhibition [6] was “Dose-dependent effect”. The Activity [7] was “inactive”, the Activity [8] was “Active” and the Activity [9] was “inactive”. The Activity [10] was “inactive”, the Activity [11] was 3.4 and the Activity [12] was “inactive”. For the same compound, the Activity [13] was “Active”, the Activity [14] was “Active” and the Activity [15] was “inactive”. For the same compound, the inhibition at 10 µM [16] was 37%, the Activity [17] was “Active” and the Activity [18] was “inactive”. For the same compound, the inhibition [19] was “inactive”, the Activity [20] was 46.6% and the Activity [21] was “inactive”. It also gave an Activity [22] of 25%.
